Source: the kinase profiling compilation of Christmann-Franck et al. (2016)

How the values were obtained:
Experiment in all cases: KINOMEscan competition binding
Details in all cases: compound 10.0 µM
[1] = molecular target: RPS6KA1 KD1 (human) (UniProt Q15418)
[2] = molecular target: PIM3 (human) (UniProt Q86V86)
[3] = molecular target: CIT (human) (UniProt O14578)
[4] = molecular target: RIPK1 (human) (UniProt Q13546)
[5] = molecular target: MAP2K1 (human) (UniProt Q02750)
[6] = molecular target: MAPK10 (human) (UniProt P53779)
[7] = molecular target: BRSK1 (human) (UniProt Q8TDC3)
[8] = molecular target: NEK5 (human) (UniProt Q6P3R8)
[9] = molecular target: PDGFRB (human) (UniProt P09619)
[10] = molecular target: FLT3 (human) (UniProt P36888)
[11] = molecular target: MAK (human) (UniProt P20794)
[12] = molecular target: CSNK2A2 (human) (UniProt P19784)
[13] = molecular target: EPHB2 (human) (UniProt P29323)
[14] = molecular target: PRKD1 (human) (UniProt Q15139)
[15] = tested on: FLT3 (human), P36888 [N841I]
[16] = tested on: EGFR (human), P00533 [752-759 del]
[17] = molecular target: RPS6KA6 KD1 (human) (UniProt Q9UK32)
[18] = molecular target: TXK (human) (UniProt P42681)
[19] = molecular target: CDK4 CCND3 (human) (UniProt P11802+P30281)
[20] = molecular target: MAP3K4 (human) (UniProt Q9Y6R4)
[21] = tested on: KIT (human), P10721 [D816H]
[22] = molecular target: MAPK15 (human) (UniProt Q8TD08)
[23] = molecular target: CDK7 (human) (UniProt P50613)
[24] = molecular target: MATK (human) (UniProt P42679)
[25] = molecular target: GRK1 (human) (UniProt Q15835)
[26] = molecular target: MAPKAPK5 (human) (UniProt Q8IW41)
[27] = molecular target: INSR (human) (UniProt P06213)
[28] = molecular target: AKT2 (human) (UniProt P31751)
[29] = molecular target: CLK4 (human) (UniProt Q9HAZ1)
[30] = molecular target: MAP2K5 (human) (UniProt Q13163)
[31] = molecular target: FLT1 (human) (UniProt P17948)
[32] = molecular target: PRKAA1 (human) (UniProt Q13131)
[33] = molecular target: MAPK3 (human) (UniProt P27361)
[34] = molecular target: TLK2 (human) (UniProt Q86UE8)
[35] = molecular target: SIK2 (human) (UniProt Q9H0K1)
[36] = molecular target: EPHA8 (human) (UniProt P29322)
[37] = molecular target: SRPK1 (human) (UniProt Q96SB4)
[38] = molecular target: STK16 (human) (UniProt O75716)
[39] = molecular target: CSNK1G3 (human) (UniProt Q9Y6M4)
[40] = molecular target: CDK3 (human) (UniProt Q00526)
[41] = molecular target: GAK (human) (UniProt O14976)

Chain of MAP3K4 (human) (Q9Y6R4 whole entry, looked up): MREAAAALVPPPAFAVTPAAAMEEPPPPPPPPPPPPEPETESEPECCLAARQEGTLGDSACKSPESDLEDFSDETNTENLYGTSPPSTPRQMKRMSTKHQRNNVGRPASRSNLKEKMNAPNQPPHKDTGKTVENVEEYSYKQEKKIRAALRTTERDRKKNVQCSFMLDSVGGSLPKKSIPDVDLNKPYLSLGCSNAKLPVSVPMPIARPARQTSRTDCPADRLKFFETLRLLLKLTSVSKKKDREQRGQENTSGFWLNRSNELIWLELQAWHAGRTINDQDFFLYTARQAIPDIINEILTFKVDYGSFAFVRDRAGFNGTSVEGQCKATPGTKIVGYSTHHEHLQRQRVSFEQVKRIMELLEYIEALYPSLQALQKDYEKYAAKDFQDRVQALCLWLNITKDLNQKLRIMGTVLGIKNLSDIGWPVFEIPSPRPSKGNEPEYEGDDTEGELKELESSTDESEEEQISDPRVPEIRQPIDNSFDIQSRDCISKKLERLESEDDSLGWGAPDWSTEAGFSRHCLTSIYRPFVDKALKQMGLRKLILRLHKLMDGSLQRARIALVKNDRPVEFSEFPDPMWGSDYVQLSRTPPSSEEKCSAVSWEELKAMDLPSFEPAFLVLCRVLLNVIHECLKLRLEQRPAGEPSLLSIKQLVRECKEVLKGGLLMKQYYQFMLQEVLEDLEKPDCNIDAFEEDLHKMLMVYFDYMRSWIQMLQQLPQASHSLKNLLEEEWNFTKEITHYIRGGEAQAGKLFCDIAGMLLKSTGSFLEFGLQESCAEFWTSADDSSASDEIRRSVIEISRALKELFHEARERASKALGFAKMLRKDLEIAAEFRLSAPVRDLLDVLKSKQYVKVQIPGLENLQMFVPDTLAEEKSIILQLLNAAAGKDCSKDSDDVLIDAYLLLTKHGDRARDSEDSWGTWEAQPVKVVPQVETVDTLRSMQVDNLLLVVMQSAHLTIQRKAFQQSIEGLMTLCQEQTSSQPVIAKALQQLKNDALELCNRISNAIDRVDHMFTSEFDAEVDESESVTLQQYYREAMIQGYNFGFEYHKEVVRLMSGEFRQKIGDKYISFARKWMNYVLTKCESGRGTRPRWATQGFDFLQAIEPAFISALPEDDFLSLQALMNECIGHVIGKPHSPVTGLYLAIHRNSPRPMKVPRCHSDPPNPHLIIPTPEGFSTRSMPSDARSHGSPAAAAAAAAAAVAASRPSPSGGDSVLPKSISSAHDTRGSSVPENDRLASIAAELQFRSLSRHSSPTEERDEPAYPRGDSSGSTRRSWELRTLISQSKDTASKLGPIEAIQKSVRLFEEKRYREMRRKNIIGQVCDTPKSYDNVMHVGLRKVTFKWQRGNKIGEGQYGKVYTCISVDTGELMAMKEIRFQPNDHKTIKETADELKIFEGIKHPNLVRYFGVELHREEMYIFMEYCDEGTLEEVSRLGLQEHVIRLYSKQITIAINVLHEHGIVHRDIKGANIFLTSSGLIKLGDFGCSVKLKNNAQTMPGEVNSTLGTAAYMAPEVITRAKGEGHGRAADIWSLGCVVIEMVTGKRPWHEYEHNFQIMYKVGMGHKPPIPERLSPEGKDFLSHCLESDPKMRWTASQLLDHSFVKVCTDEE
Chain of AKT2 (human) (P31751 whole entry, looked up): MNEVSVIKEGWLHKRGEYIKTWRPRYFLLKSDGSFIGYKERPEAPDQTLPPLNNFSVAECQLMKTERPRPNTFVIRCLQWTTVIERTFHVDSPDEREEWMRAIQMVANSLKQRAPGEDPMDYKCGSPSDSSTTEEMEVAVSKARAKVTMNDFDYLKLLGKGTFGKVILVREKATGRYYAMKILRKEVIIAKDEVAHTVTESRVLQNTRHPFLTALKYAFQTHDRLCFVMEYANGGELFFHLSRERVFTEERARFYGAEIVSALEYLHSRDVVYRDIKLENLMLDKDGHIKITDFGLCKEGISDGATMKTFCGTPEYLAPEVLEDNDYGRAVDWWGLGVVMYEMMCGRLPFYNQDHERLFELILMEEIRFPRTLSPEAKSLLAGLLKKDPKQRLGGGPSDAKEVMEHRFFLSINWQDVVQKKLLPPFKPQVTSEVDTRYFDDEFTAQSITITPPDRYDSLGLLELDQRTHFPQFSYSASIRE
Chain of PRKAA1 (human) (Q13131 whole entry, looked up): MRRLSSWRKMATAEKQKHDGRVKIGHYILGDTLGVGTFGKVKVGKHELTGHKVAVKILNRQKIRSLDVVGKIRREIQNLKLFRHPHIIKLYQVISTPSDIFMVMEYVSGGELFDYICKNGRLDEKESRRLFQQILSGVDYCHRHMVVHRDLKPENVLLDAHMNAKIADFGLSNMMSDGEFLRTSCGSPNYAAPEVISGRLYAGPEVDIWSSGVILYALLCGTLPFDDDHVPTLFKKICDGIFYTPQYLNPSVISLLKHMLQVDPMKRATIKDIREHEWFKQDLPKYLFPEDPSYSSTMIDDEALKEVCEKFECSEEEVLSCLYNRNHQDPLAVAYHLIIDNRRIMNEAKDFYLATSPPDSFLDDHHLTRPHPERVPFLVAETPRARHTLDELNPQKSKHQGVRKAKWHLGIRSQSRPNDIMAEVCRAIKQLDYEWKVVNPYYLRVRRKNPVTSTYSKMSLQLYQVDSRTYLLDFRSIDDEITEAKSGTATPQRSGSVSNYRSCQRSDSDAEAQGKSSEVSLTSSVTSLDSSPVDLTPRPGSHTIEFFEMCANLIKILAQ
Chain of RPS6KA1 KD1 (human) (Q15418 whole entry, looked up): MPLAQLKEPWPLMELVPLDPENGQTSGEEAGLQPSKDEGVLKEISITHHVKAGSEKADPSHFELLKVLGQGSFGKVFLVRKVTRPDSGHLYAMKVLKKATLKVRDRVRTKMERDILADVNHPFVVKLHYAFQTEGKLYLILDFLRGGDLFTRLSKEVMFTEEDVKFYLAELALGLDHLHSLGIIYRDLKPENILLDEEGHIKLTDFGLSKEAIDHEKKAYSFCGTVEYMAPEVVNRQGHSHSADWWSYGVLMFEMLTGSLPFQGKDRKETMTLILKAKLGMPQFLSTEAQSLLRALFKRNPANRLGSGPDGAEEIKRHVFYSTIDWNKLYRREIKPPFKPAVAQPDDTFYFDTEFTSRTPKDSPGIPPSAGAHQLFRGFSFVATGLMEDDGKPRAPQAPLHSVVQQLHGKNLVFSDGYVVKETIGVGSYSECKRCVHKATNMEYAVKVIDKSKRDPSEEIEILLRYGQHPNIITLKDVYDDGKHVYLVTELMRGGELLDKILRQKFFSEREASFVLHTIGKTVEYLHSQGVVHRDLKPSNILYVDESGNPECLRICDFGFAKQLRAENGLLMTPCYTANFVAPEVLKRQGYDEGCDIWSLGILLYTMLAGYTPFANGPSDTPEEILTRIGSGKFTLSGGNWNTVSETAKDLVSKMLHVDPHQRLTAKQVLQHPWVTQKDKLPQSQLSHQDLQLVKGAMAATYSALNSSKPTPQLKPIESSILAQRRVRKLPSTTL
Chain of INSR (human) (P06213 whole entry, looked up): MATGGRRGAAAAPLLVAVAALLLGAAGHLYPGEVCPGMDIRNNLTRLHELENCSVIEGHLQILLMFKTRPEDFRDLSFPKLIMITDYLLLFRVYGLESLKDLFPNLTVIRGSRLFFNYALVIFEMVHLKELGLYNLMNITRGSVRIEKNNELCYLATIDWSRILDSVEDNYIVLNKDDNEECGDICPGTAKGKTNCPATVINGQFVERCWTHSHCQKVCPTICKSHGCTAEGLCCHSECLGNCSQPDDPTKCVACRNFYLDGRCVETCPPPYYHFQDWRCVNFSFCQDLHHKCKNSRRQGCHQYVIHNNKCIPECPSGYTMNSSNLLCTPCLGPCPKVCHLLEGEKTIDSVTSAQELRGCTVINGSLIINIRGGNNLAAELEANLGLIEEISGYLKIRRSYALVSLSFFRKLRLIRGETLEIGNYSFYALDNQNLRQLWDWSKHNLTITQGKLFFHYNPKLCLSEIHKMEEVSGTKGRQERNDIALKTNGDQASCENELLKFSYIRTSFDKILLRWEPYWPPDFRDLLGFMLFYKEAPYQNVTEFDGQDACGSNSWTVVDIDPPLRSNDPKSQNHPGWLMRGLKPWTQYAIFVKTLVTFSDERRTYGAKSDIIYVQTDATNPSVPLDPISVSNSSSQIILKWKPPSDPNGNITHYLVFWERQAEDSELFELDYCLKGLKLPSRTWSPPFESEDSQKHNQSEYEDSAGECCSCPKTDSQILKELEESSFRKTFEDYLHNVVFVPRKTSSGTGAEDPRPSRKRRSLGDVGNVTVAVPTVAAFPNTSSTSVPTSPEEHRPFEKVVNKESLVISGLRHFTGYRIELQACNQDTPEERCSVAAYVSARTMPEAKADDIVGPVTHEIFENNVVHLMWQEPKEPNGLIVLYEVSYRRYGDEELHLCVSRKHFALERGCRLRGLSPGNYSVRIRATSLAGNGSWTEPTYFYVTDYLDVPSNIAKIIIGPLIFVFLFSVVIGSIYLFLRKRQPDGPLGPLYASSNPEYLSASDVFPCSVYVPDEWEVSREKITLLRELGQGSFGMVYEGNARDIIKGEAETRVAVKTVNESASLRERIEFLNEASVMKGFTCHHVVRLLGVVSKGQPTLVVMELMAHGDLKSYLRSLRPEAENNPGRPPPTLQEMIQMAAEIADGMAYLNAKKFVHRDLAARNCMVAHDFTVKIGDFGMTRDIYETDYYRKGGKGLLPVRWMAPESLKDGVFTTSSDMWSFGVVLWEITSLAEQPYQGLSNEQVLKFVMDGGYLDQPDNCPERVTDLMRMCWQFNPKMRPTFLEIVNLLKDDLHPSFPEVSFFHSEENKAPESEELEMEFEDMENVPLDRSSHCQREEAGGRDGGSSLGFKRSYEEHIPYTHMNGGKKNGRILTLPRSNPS
Chain of STK16 (human) (O75716 whole entry, looked up): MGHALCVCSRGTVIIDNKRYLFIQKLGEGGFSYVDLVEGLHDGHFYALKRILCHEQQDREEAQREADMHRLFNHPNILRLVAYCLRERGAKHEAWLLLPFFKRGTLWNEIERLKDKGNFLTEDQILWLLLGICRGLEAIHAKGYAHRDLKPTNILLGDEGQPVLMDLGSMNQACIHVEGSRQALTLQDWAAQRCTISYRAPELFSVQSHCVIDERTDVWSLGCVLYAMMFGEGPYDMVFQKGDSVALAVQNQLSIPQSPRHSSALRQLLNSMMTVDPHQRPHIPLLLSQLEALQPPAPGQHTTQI

COc1ccc(-c2ccc3c(N4CCOCC4)nc(N4C[C@@H](C)O[C@@H](C)C4)nc3n2)cc1CO
kinase still bound, per cent of control [1]: 70%
kinase still bound, per cent of control [2]: 100%
kinase still bound, per cent of control [3]: 96%
kinase still bound, per cent of control [4]: 100%
kinase still bound, per cent of control [5]: 100%
kinase still bound, per cent of control [6]: 81%
kinase still bound, per cent of control [7]: 100%
kinase still bound, per cent of control [8]: 100%
kinase still bound, per cent of control [9]: 95%
kinase still bound, per cent of control [10]: 71%
kinase still bound, per cent of control [11]: 100%
kinase still bound, per cent of control [12]: 98%
kinase still bound, per cent of control [13]: 100%
kinase still bound, per cent of control [14]: 91%
kinase still bound, per cent of control [15]: 82%
kinase still bound, per cent of control [16]: 100%
kinase still bound, per cent of control [17]: 76%
kinase still bound, per cent of control [18]: 100%
per cent of control [19]: 80%
kinase still bound, per cent of control [20]: 100%
kinase still bound, per cent of control [21]: 100%
kinase still bound, per cent of control [22]: 96%
per cent of control [23]: 73%
kinase still bound, per cent of control [24]: 78%
kinase still bound, per cent of control [25]: 98%
kinase still bound, per cent of control [26]: 77%
kinase still bound, per cent of control [27]: 97%
kinase still bound, per cent of control [28]: 83%
kinase still bound, per cent of control [29]: 62%
kinase still bound, per cent of control [30]: 100%
kinase still bound, per cent of control [31]: 92%
kinase still bound, per cent of control [32]: 97%
kinase still bound, per cent of control [33]: 100%
kinase still bound, per cent of control [34]: 87%
kinase still bound, per cent of control [35]: 91%
kinase still bound, per cent of control [36]: 80%
kinase still bound, per cent of control [37]: 100%
kinase still bound, per cent of control [38]: 93%
kinase still bound, per cent of control [39]: 92%
per cent of control [40]: 100%
kinase still bound, per cent of control [41]: 95%
